Experiments:
[1] = test system: cytochrome oxidase subunit I; assay: Immunodetection of mitochondrial-encoded proteins after CAP infusion (Example I); design: species or system rabbit; conditions: CAP infusion for as little as 15 minutes
[2] = test system: mitochondrial-encoded proteins (CO-1, ND3); assay: Western blotting of mitochondrial-encoded proteins after CAP perfusion (Example II); design: species or system rat; conditions: perfusion with CAP for 30 minutes
Protocol: Error bars represent standard deviation. […] Mitochondria (50 μg) were resolved by SDS-PAGE and transferred to PVDF nylon membranes. […] Detection was performed with ECL (Amersham, Piscataway, N.J.). Non-saturated autoradiographs were quantitated with Scion/NIH Image.

[3] = test system: rabbit heart (circumflex coronary artery occlusion); assay: Rabbit circumflex coronary artery occlusion and reperfusion; type: in vivo; conditions: n=6
Protocol: (A) At 4 hours, hearts were removed, immediately frozen and blindly assessed for infarct size. The decrease in left ventricular pressure from baseline was assessed after ischemia. […] Animals were mechanically ventilated with room air via a tracheostomy, and the heart was exposed by a median sternotomy. A suture ligature was passed around the circumflex coronary artery so it could be snare-occluded and reperfused as described in Gottlieb et al. (1994). Ischemia was induced by snare occlusion and confirmed by visual inspection. After 30 minutes of ischemia, the ligature was released and the heart was reperfused for 4 hours. The heart was then rapidly excised, and the normal area of perfusion marked by infusion of acridine orange. The heart was frozen and assessed for infarct size the following day using TTC staining. Infarct size as a percentage of the area at risk (demarcated by acridine orange staining) was determined by an observer blinded to the treatment status of the hearts.

isolated rat hearts = assay: Langendorff perfusion, no-flow ischemia/reperfusion of isolated rat heart (infarct size by TTC, CK release, coronary flow); conditions: for coronary flow after ischemia: treated hearts, reperfusion; for CK release (in words) / infarct size (in words): cimetidine 200-600 μM, sulfaphenazole 10 μM and 300 μM; for infarct size (in words): 2 hours reperfusion
Protocol: FIG. 2. […] Adult rat hearts were perfused in Langendorff mode for 20 minutes, then subjected to 30 minutes no-flow ischemia followed by a 2 hour reperfusion. […] (A) After 2 hours of reperfusion, hearts were frozen and assessed for infarct size using TTC. Coronary effluent was collected for 15 minutes immediately before and after ischemia and assessed for CK release. […] All procedures were approved by the Animal Care and Use Committee at The Scripps Research Institute (TSRI). […] No-flow ischemia was maintained for 30 minutes and reperfusion was accomplished by restoring flow for 15 minutes for creatine kinase (CK) release determination and dihydroethidium (DHE) staining, or 120 minutes for infarct size determination by triphenyl tetrazolium chloride (TTC) staining. Measurement of CK activity was performed using the CK EC 2.7.3.2 UV-Test kit (Sigma) as per the manufacturer's instructions. The measurement of infarct size after TTC staining was performed as described in Example 1.

[4] = test system: mitochondrial respiratory chain Complex I, II, IV; assay: Oxygen consumption (respiration) of mitochondria from perfused rat hearts; conditions: hearts perfused with chloramphenicol for 30 minutes
Protocol: FIG. 4. […] (B) Mitochondrial respiration was measured by polarography. […] Error bars represent standard deviation. […] Hearts were rapidly minced in ice-cold MSE buffer (in mmol/L, mannitol 220, sucrose 70, EGTA 2, MOPS 5 (pH 7.4), and taurine 2 supplemented with 0.2% fatty acid-free bovine serum albumin (BSA)). Heart tissue was homogenized in MSE with a Polytron type tissue grinder at 11,000 rpm for 2.5 seconds followed by 2 quick strokes at 500 rpm with a loose fit Potter-Elvehjem tissue grinder. The homogenate was centrifuged at 500 g twice for 5 minutes, saving the supernatant. Mitochondria were pelleted from the supernatant by centrifugation at 3000 g twice, and the pellet was rinsed with MSE buffer. The supernatant was saved as crude cytosol. The final pellet was rinsed and resuspended in 50 μl Incubation Medium (in mmol/L, mannitol 220, sucrose 70, EGTA 1, MOPS 5 (pH 7.4), taurine 2, MgCl2 10, and KH2PO4 5, supplemented with 0.2% fatty acid-free BSA) (Scholte et al., 1997). Mitochondria were incubated for 15 minutes on wet ice and protein concentration was determined with BSA as a standard by a Bradford assay. All work was performed on wet ice at 0° C. Oxygen consumption was measured at 30° C. with a Clark type oxygen electrode (Instech) in 600 μl KCl respiration buffer (in mmol/L: KCl 140, EGTA 1, MOPS 10 (pH 7.4), MgCl2 10, and KH2PO4 5, supplemented with 0.2% fatty acid-free BSA) (Scholte et al., 1997; Chance et al., 1961; McKee et al., 1990). Complex II activity was measured using 200 μg mitochondria with succinate, 5 mM, as a substrate. […] For each complex the ADP-stimulated respiration rate (state 3) was measured after the addition of 2 mM ADP; the ADP-independent respiration rate, oligomycin-insensitive (state 4) was measured after the addition of 2 μM oligomycin; and the maximal respiration rate was measured after uncoupling the mitochondria with 2 μM FCCP. Rates were calculated as nA O2/min/mg protein after subtracting the rate that was insensitive to the inhibitors antimycin A, 1 μM, for complex III, and KCN, 1 mM, for complex IV.

isolated rabbit heart = assay: Langendorff perfusion, global ischemia/reperfusion of isolated rabbit heart (infarct size by TTC, CK release)
Protocol: The global ischemia protocol was adapted from that of Tsuchida et al. (1994). All procedures were approved by the Animal Care and Use Committee at The Scripps Research Institute (TSRI). To obtain isolated hearts, hearts were excised from an anesthetized mammal such as a rabbit and quickly cannulated onto the Langendorff perfusion apparatus. The heart is perfused with Krebs-Ringer buffer for 15 minutes before ischemia/reperfusion episodes. No-flow ischemia is maintained for 30 minutes and reperfusion is accomplished by restoring flow for 15 minutes (unless otherwise indicated). Ischemic preconditioning can be induced by three 5 minute cycles of no-flow ischemia and reperfusion immediately preceding the regular ischemia and reperfusion. In brief, the heart was excised from the anesthetized rabbit and quickly cannulated onto the Langendorff perfusion apparatus. The heart was perfused with Krebs-Ringer buffer for 15 minutes before ischemia/reperfusion episodes. No-flow ischemia was maintained for 30 minutes and reperfusion was accomplished by restoring flow for 15 minutes (unless otherwise indicated). Ischemic preconditioning was induced by three 5 minute cycles of no-flow ischemia and reperfusion immediately preceding the regular ischemia and reperfusion. The efficacy of these interventions was verified by measurement of creatine kinase (CK) release and infarct size measurement using triphenyl tetrazolium chloride (TTC) staining (Pain et al., 2000; Downey, 2001). The measurement of infarct size was essentially identical to that detailed by Downey (2001) except for the method of quantitation. After the TTC reaction, the heart slices were scanned into TIFF files and analyzed with Adobe Photoshop 5.5. The images were digitally manipulated in an identical manner to ensure equivalent outcome. […] The histogram counts of red and white were recorded. The percent infarction was calculated as white counts divided by the sum of red plus white counts.

[5] = test system: p46 (EF-Tumt) phosphorylation; assay: Phosphorylation of mitochondrial p46 (EF-Tumt) with [γ-32P]ATP in the presence of kinase inhibitors; type: biochemical, rabbit
Protocol: For phosphorylation reactions, 100 μg of purified mitochondria was incubated in MSE buffer supplemented with 25 mmol/L HEPES-KOH [pH 7.5], 10 mmol/L magnesium acetate, 10 μmol/L ATP (cold), and 10 μCi [γ-^32P]ATP for 30 minutes at 30° C. with or without 250 μg of cytosol. The reaction mixture was subsequently centrifuged for 5 minutes at 10,000 g. The mitochondrial pellet was resuspended in 500 μL of MC buffer and washed twice. The mitochondrial proteins were resolved on a 12% polyacrylamide gel, transferred to nitrocellulose, and detected by autoradiography.
For protein kinase inhibition experiments, cytosols were incubated with the inhibitors at the indicated concentrations, then mitochondria were added and the reaction was initiated with the addition of ATP. Serine/threonine kinase inhibitors (Calbiochem, catalog No. 539572) included bisindolylmaleimide I, 10 nmol/L; H-89, 48 μmol/L; protein kinase G inhibitor, 86 μmol/L; ML-7, 0.3 μmol/L; KN-93, 0.37 μmol/L; and staurosporine, 10 nmol/L. Tyrosine kinase inhibitors (Calbiochem, catalogue No. 657021) included genistein, 25 μmol/L; PP2, 5 nmol/L; AG490, 15 μmol/L; AG1296, 1 μmol/L; and AG1478, 3 nmol/L.

[6] = test system: H9c2 and neonatal rat cardiomyocytes; assay: Hydrogen peroxide-induced apoptosis and superoxide production in cells
CYP2D2 = molecular target: T1, CYP2D2 (Rattus norvegicus, UniProt P10634); assay: AMMC demethylase activity in CYP2D2 supersomes; conditions: sulfaphenazole 50 μM
T1 sequence (P10634 1-500): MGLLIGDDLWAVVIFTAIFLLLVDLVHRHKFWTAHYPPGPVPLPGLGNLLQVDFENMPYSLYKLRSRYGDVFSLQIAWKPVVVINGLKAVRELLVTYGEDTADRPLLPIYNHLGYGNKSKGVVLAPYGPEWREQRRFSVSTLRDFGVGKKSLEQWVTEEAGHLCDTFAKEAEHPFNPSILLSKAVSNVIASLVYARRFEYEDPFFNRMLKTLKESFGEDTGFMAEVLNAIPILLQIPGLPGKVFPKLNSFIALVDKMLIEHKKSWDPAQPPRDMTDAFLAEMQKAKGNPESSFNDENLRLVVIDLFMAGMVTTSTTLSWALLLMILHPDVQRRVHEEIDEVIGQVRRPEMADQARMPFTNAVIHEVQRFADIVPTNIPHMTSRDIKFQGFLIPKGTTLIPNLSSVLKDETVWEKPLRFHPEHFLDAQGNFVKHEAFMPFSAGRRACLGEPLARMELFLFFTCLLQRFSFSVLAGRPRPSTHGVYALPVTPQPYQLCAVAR
Protocol: Effect of sulfaphenazole on AMMC demethylase activity. (A) The rate of AHMC product formation was assessed and the IC50 value was calculated. (B) AHMC product formation was measured over 2 hours in baculovirus-infected CYP2D2-specific supersomes in the presence or absence of sulfaphenazole (50 μM) (SUL).
Assays were carried out in parallel at 37° C. in fluorescence detector microtiter plates (96 well). CYP2D2 supersomes, substrates (AMMC), product standard 3-[2-(N,N-diethyl-N-methylamino)ethyl-]-7-hydroxy-4-methylcoumarin (AMHC), and the NADPH generating system were obtained from BD Gentest (Woburn, Mass.). Reaction components were pre-warmed to 37° C. The assay was initiated by addition of the NADPH-regenerating system to substrate concentrations selected to give linear time-course profiles (AMMC, 30 μM) and rat liver microsomal protein (10 mg/ml) isolated as described above in phosphate buffer (50 mM, pH 7.4) (final organic co-solvent concentration, 0.1% acetonitrile) in the presence or absence of sulphaphenazole (50 μM AMMC). Reaction progression was followed by continuously monitoring AHMC formation (λex=390 nm and λem=460 nm) using a SPECTRAmax™ GEMINI dual-scanning microplate spectrofluorometer for 1 hour at 37° C. The residual absorption due to NADPH was compensated for throughout the analysis. Each assay was performed in at least triplicate. […]

[7] = test system: AMMC demethylase (cytochrome P450) in rat liver microsomes; assay: Fluorometric cytochrome P450 assay, AMMC demethylation in rat liver microsomes; type: biochemical; conditions: male, Sprague-Dawley, pH 7.4, probe AMMC (30 μM), AMMC substrate, read-out: IC50, inhibition of AMMC demethylation
Protocol: Microsomes were isolated from rat livers (Sprague-Dawley, male, 6-8 weeks) by differential centrifugation as described by Walles and coworkers (2001). Homogenized tissue was centrifuged at 11,000 g for 30 minutes at 4° C. The supernatant was further centrifuged at 170,000 g for 60 minutes at 4° C. The resulting pellet was resuspended in KCl buffer and centrifuged at 200,000 g for 40 minutes at 4° C. The microsomal fraction was then transferred into Tris-sucrose buffer (0.25 M sucrose, 20 mM Tris buffer, 5 mM EDTA). Protein concentrations were determined by bicinchoninic acid micro assay (Pierce). Microsomal solutions were aliquoted and stored at −80° C. until further use.

CYP2D6 = CYP2D6 (Homo sapiens, UniProt P10635); assay: AMMC demethylation by recombinant CYP2D6; type: biochemical; conditions: recombinant system
[8] = mitochondria incubated with control or ischemic cytosols, H-89 48 μmol/L, genistein 25 μmol/L

Chain of CYP2D6 (P10635 whole entry): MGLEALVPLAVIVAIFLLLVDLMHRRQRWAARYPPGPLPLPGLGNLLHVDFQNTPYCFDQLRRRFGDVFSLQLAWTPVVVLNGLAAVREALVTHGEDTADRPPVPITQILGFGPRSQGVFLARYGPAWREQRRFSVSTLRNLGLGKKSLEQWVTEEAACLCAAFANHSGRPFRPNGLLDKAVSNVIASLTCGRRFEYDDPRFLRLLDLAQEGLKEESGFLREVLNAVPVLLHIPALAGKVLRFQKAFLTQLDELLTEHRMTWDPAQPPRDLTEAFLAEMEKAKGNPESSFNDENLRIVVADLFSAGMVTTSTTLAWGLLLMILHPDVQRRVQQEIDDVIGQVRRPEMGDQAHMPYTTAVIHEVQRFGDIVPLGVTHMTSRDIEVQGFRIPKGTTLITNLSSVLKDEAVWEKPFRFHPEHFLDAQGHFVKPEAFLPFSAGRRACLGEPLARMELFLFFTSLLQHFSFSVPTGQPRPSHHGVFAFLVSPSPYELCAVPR

Compound: O=C(N[C@H](CO)[C@H](O)c1ccc([N+](=O)[O-])cc1)C(Cl)Cl [CAP, chloramphenicol]
- immunodetection of mitochondrial-encoded cytochrome oxidase I [1]: near-complete loss
- levels of mitochondrial-encoded proteins and respiratory chain activity [2]: not sufficient to alter
- infarct size, of the area at risk ([3]; CAP 20 mg/kg i.v. 30 min before 30 min occlusion, 4 h reperfusion, untreated 49.3 ±17.7): 18.3%
- post-ischemic hypotension (decrease in left ventricular pressure from baseline) ([3]; CAP 20 mg/kg i.v., untreated −34.2±2.3): −13.3±2.2 mm H2O
- infarct size (isolated rat hearts; CAP 300 μm before and after global no-flow ischemia (I/R+CAP), 30 min ischemia, 2 h reperfusion, SEM, n=5, untreated 43.2±3.2%): 16.0±3.6%
- CK released after ischemia (isolated rat hearts; CAP administered prior to ischemia, SEM, n=5, untreated 2.25±0.28): 0.27±0.13 U/15 min
- infarct size (isolated rat hearts; chloramphenicol administered immediately after ischemia (at reperfusion), n=5, untreated 43.2%): 21.7%
- reduction of infarct size (isolated rat hearts; pretreatment of hearts prior to ischemia and reperfusion (summary)): about 90%
- coronary flow after ischemia (isolated rat hearts): prevent the associated drop in coronary flow
- Complex I State 4 ([4]; −CAP 13.74 ± 6.33): 12.09 ± 4.59 n Atoms O/min/mg
- Complex II State 4 ([4]; −CAP 21.70 ± 5.89): 23.04 ± 7.32 n Atoms O/min/mg
- Complex II State 3 ([4]; −CAP 85.47 ± 22.2): 83.58 ± 14.4 n Atoms O/min/mg
- Complex IV State 4 ([4]; −CAP 113.99 ± 21): 116.89 ± 23 n Atoms O/min/mg
- Complex I State 3 ([4]; −CAP 158.57 ± 32): 162.99 ± 31 n Atoms O/min/mg
- Complex IV State 3 ([4]; −CAP 209.85 ± 40): 201.09 ± 23 n Atoms O/min/mg
- infarct size after ischemia and reperfusion (isolated rabbit heart; 100 μg/mL CAP in buffer throughout: 15 min stabilization, 30 min global ischemia, 2 h reperfusion, mean±SEM, untreated 64.1 (±4.1)): 43.1 (±6.4)
- infarct size (isolated rabbit heart; CAP administered only in the last 15 minutes of the 2 hour reperfusion (control for TTC interference)): 69.2±5.7
- CK release after global ischemia (isolated rabbit heart; CAP pretreatment, 100 μg/mL): reduced

Compound: O=S(=O)(NCCNC/C=C/c1ccc(Br)cc1)c1cccc2cnccc12 [H-89]
- phosphorylation of p46 [5, 8]: did not affect

Compound: CN/C(=N/CCSCc1nc[nH]c1C)NC#N [cimetidine]
- CK release (in words) (isolated rat hearts): reduced CK release
- infarct size (in words) (isolated rat hearts): dose-dependent reduction
- coronary flow after ischemia (isolated rat hearts): prevent the associated drop in coronary flow

Compound: O=c1c(-c2ccc(O)cc2)coc2cc(O)cc(O)c12 [genistein]
- phosphorylation of p46 ([5]; mitochondria from an ischemic heart incubated with genistein, no cytosol): able to inhibit
- phosphorylation of p46 [5, 8]: reduced phosphorylation

Compound: Nc1ccc(S(=O)(=O)Nc2ccnn2-c2ccccc2)cc1 [sulfaphenazole]
- rescue from hydrogen peroxide-induced apoptosis and superoxide production [6]: rescued
- inhibition of CYP2D2 activity (AMMC demethylase) (CYP2D2): did not appear to significantly inhibit
- IC50 at 1 h [7]: 500 nM
- CK release (in words) (isolated rat hearts): significant reduction
- infarct size (in words) (isolated rat hearts): significant reduction
- coronary flow after ischemia (isolated rat hearts): prevent the associated drop in coronary flow
- inhibition of CYP2D6 (AMMC demethylation) (CYP2D6): not inhibited

Compound: gentamicin sulfate
- cardioprotection (isolated rat hearts; gentamicin in perfusion buffer): not cardioprotective
